This note sets out measurements from article PMC6627331, “Identification of Small Molecule Inhibitors of Staphylococcus aureus RnpA” (Antibiotics, 2019).

Molecules are shown by their SMILES. Converted amounts (≈) assume the structure as drawn. Read-outs that look alike come from different tables or passages of the source.

Data set [1] has as its system S. aureus UAMS-1. Kind of data set: Minimum inhibitory concentration (MIC) testing. Type of data set: cell-based, Staphylococcus aureus. The protocol: Minimum inhibitory concentration (MIC) testing was performed using to Clinical & Laboratory Standards Institute (CLSI) guidelines. Accordingly, individual wells of a 96-well microtiter plate were inoculated with 10^4 colony forming units (CFU) of S. aureus UAMS-1 containing two-fold increasing concentrations (0 to 256 μg·mL^−1) of the indicated antibiotic or putative RnpA inhibitor compound, and incubated at 37 °C for 16 h in MHB. The MIC was defined as the lowest concentration of compound in which there was no visible bacterial growth in the well.

The test system of data set [2] is norA mRNA in S. aureus UAMS-1 cells. Put plainly: Cellular norA mRNA turnover (qRT-PCR after rifampin arrest). Type of data set: cell-based, Staphylococcus aureus. The following applies: 0.5× MIC for 30 min; 5 min post-transcriptional arrest; mock 99%. As to the method: S. aureus mRNA half-life determinations were performed as previously described. […] Rifampin (Sigma-Aldrich) was added to the culture at a final concentration of 200 μg·mL^−1 to inhibit de novo transcript synthesis. Half of the culture was immediately removed and combined with an equal volume of ice cold acetone:ethanol (1:1 v/v). The remaining culture was returned to the shaking 37 °C incubator for an additional 5 min and then subsequently combined with an equal volume of ice cold acetone:ethanol (1:1 v/v) and stored at −80 °C until processing, as described below.
For total bacterial RNA isolation, cell suspensions were thawed on ice, centrifuged at 3000 rpm for 10 min at 4 °C, the resulting cell pellets were resuspended in ice-cold TE buffer (10 mM Tris-HCl, pH 8.0, 1 mM EDTA), and transferred into a FastPrep bead beater tube containing 0.1 mm silica spheres (MP Biomedicals; Santa Ana, CA, USA). Mixtures were homogenized at 5 m·s^−1 for 20 s, rested on ice for 5 min, and then homogenized again at 4.5 m·s^−1 in a FastPrep-24 instrument. Cellular debris were collected by centrifugation at 13,000 rpm for 15 min at 4 °C, whereas bacterial RNA was isolated from the supernatant using Qiagen RNeasy Mini Kits and miRNeasy Mini Kits were used to isolate total bacterial RNA, following the manufacturer’s instructions. RNA quantity and quality were measured using a NanoDrop 2000 spectrophotometer (ThermoFisher Scientific). For qRT-PCR, 1 μg of total bacterial RNA was treated with 3 units of DNase I (Ambion; Carlsbad, CA, USA) for 1 h at 37 °C to remove any DNA contaminants. RNA cleanup was performed using the Qiagen RNeasy Mini Kit. Subsequently, the BioRad iScript cDNA Synthesis Kit (Hercules, CA, USA) was used to convert 200 ng of RNA into cDNA, which was amplified using the BioRad iQ SYBR Green Supermix per the manufacturer’s instructions and fluorescence was read on the Biorad CFX 96 Connect machine. Transcript levels were compared to the internal control 16S rRNA (ΔΔCt method), and plotted as a fold change compared to control. The following primer pairs were used in this study for qRT-PCR: norA forward—[…] and norA reverse-[…] CTAAG; -15 ptRNA^Tyr forward-[…] and tRNA^Tyr reverse-TGGTG […]; 16S rRNA forward-[…] and 16S rRNA reverse-[…].
Background: In qPCR the cycle at which signal appears reflects the starting amount.

In data set [3] the target is T1, S. aureus RNase P (RnpA + rnpB) (Staphylococcus aureus, UniProt P0A0H5).
T1 construct: hexahistidine (His6) (N); made in house; host or cells: E. coli BL21 (DE3), plasmid pEXP5-nt
T1 sequence (P0A0H5 1-117): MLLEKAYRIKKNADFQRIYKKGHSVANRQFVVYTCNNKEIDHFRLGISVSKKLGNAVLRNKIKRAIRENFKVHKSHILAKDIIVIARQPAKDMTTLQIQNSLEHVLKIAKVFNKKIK
Kind of data set: RnpA-dependent RNase P in vitro ptRNA^Tyr processing assay. Type of data set: biochemical. The following applies: in vitro ptRNA^Tyr processing. The protocol:
S. aureus RNase P activity assays were performed according to conditions described previously. Briefly, ptRNA^Tyr and rnpB RNA species were first denatured by heating to 95 °C for 5 min then slow cooled to room temperature. RNase P was reconstituted by mixing an equal molar ratio of rnpB and RnpA for 15 min at 37 °C. Precursor tRNA processing inhibition reactions were performed by mixing 1.25 pmol of reconstituted RNase P (RnpA + rnpB) with an equal volume of 2× low salt buffer (50 mM Tris-HCl pH 8.0, 5 mM MgCl2) in the presence of DMSO (negative control) or the indicated compound (≤500 µM) and incubated for 5 min at 37 °C. 5 pmol ptRNA^Tyr was added and the mixture was incubated at 37 °C 15 min. Reactions were stopped by adding 2× RNA loading dye and heating at 65 °C for 10 min. Each sample was electrophoresed in a 7 M urea/8% polyacrylamide gel then stained with ethidium bromide. The Biorad EZ Gel Doc imaging system was used to visualize the RNA and relative abundance of the mature tRNA^Tyr band (% processing) in the negative control or in samples containing the indicated compounds and analyzed using Biorad Image Lab densitometry software. The inhibitory activity of the indicated compounds were calculated as a % inhibition using the following equation: […].
To assess IC50, % RNase P processing inhibition was plotted against compound concentration and a linear best fit equation was generated to calculate the IC50.

The next data set deals with HepG2 cells. Put plainly: MTT human cell cytotoxicity testing. Type of data set: cell-based. The following applies: SAR figures; 4× MIC exposure for 24 h. As to the method: Human HepG2 hepatocytes were seeded in individual wells of a 96-well cell-culture treated microtiter plate at a concentration of 1 × 10^5 cells per well and incubated in Dulbecco’s Modified Eagle Medium (DMEM) supplemented with 10% fetal bovine serum at 37 °C with 5% carbon dioxide overnight. Cells were then treated with DMSO (negative control) or the indicated agent for 24 h. MTT Cell Proliferation Assay Kits were used to assess viability according to the manufacturer’s recommendations (American Type Culture Collection; Manassas, VA, USA).

The target in a further data set is T2, S. aureus RnpA (Staphylococcus aureus, UniProt P0A0H5).
T2 construct: hexahistidine (His6) (N); made in house; host or cells: E. coli BL21 (DE3), plasmid pEXP5-nt
T2 sequence (P0A0H5 1-117): T1 sequence (P0A0H5 1-117)
Kind of data set: RnpA-mediated in vitro spa mRNA degradation assay. Type of data set: biochemical. As to the method:
RnpA-mediated RNA degradation assays were performed as previously described. Briefly, 1 pmol of spa mRNA was incubated with 5 pmol RnpA at 37 °C for 30 min in reaction buffer (50 mM Tris-HCl pH 8.0, 2 mM NaCl, 2 mM MgCl2) in the absence or presence of the indicated compound (≤500 µM). The inhibitory effects of the test compounds were calculated using Biorad ImageLab densitometry software to measure the signal intensity of the spa band in the negative control (spa alone), positive control (RnpA + spa + DMSO), and experimental samples (RnpA + spa + test compound) separated on a 1.2% formaldehyde-agarose gel. Background signal from the positive control sample sometimes resulted due to incomplete degradation of transcripts. Thus, the signal intensity of the positive control was taken into account when calculating the percent inhibition. The raw signals from the positive (+RnpA) and negative (-RnpA) controls were converted into percentage, by normalizing the positive control (+RnpA) signal to 0% RnpA inhibition and the negative control (-RnpA) to 100% RnpA inhibition. Similarly, the raw signals from the test compounds were reported as percent RnpA inhibition using the following equation: [(experimental−positive control)/(negative control−positive control)] × 100. […] To assess IC50, % RnpA degradation inhibition was plotted against compound concentration; a linear best fit equation was generated and utilized to calculate the IC50.

Data set [4] concerns S. aureus UAMS-1. Put plainly: Galleria mellonella model of S. aureus infection. The settings on record: 10^4 CFU UAMS-1, single dose 100 mg·kg^−1 1 h post-infection, 16 h; DMSO 60%. Type of data set: in vivo. As to the method: (§1) An overnight culture of S. aureus strain UAMS-1 was used to inoculate (1:100 dilution) 25 mL of fresh MH medium and growth at 37 °C on a rotary shaker at 225 rpm to exponential phase (~1 × 10^8 CFU mL^−1). Cultures were pelleted by centrifugation, washed with phosphate buffered saline (PBS), and re-suspended at ~1 × 10^7 CFU·mL^−1 in fresh PBS. G. mellonella larvae weighing 150–250 mg were inoculated with 5 µL of S. aureus into the last left proleg using a 10 µL Hamilton syringe. About 1 h after inoculation, one group of worms was treated with 2 µL DMSO as infected negative control; one group was treated with 2 µL JC2 compound at 100 mg/kg dose; another group was treated with 2 µL vancomycin at 100 mg/kg dose as standard-of-care comparison. Treatments were administered in the same manner as infection, except that each injection was in the next left proleg moving towards the head of the worm. […] In addition to the mock or compound treatment of infected larvae, a group of non-infected worm injected with DMSO or corresponding compounds were used to monitor the impact of physical trauma as well as observe toxicity associated with compound treatment.

In the next data set the test system is Galleria mellonella. Put plainly: Galleria mellonella single tolerated dose (uninfected worms). Type of data set: in vivo. The following applies: single dose 100 mg·kg^−1, 16 h. As to the method:
as §1

[5] abbreviates: Staphylococcus aureus, UAMS1, SAR figures, S. aureus UAMS-1, read-out: MIC.
The mark [6] stands for this setting: Staphylococcus aureus, UAMS1, 16 h, S. aureus UAMS-1, 16 h in MHB, read-out: MIC.
The mark [7] stands for this setting: SAR figures, read-out: pIC50 = processing IC50 (converted).

The MIC is the lowest concentration found to suppress growth. The term IC50 denotes the midpoint of a concentration-inhibition curve. Regarding `CC1CCN(C(=O)Nc2cc(Cl)cc(Cl)c2)CC1` [JC1], the MIC in the data set with S. aureus UAMS-1 [1] (S. aureus UAMS-1, 16 h in MHB, listed as 9044791) stood at 1 µg/mL (≈ 3.48 µM); in the data set with S. aureus UAMS-1 [1] (Staphylococcus aureus, UAMS1, 16 h, Table S1, mupirocin synergy screening initial hits, read-out: MIC) it was 1 µg/mL; in the data set with S. aureus UAMS-1 [1] (setting [5]), 1 µg/mL (≈ 3.48 µM). Also, the “norA mRNA degradation” value in data set [2] was “did not reduce cellular norA mRNA degradation”. The IC50 in data set [3] (read-out: Processing IC50) was 210 µM; at S. aureus RnpA (read-out: Degradation IC50) it was 110 µM. Moreover, the “MTT = % HepG2 cell survival” value in the data set on HepG2 cells was found to be 63%.
As for `CN[C@H](CC(C)C)C(=O)N[C@H]1C(=O)N[C@@H](CC(N)=O)C(=O)N[C@H]2C(=O)N[C@H]3C(=O)N[C@H](C(=O)N[C@H](C(=O)O)c4cc(O)cc(O)c4-c4cc3ccc4O)[C@H](O)c3ccc(c(Cl)c3)Oc3cc2cc(c3O[C@@H]2O[C@H](CO)[C@@H](O)[C@H](O)[C@H]2O[C@H]2C[C@](C)(N)[C@H](O)[C@H](C)O2)Oc2ccc(cc2Cl)[C@H]1O` [vancomycin, reference compound], in the data set with S. aureus UAMS-1 [4], the “mortality rate of S. aureus infected worms” value is 40%. In addition, the “mortality rate of uninfected worms” value in the data set with Galleria mellonella turned out to be 10%.
In the case of `Cc1ccc(NC(=O)c2c(NC(=O)C(F)(F)F)sc3c2CCCCC3)cc1` [JR5], the MIC was 0.25 to 1 µg/mL (≈ 0.631 to 2.52 µM) in the data set on S. aureus UAMS-1 [1] (setting [6]) and 0.25 µg/mL (≈ 0.631 µM) in the data set on S. aureus UAMS-1 [1] (setting [5]). The IC50 is 80 µM in data set [3] (setting [7]) and 115 µM on S. aureus RnpA (SAR figures, read-out: dIC50 = degradation IC50). The “MTT = % HepG2 cell survival” value in the data set on HepG2 cells was 82.8%.
For `O=C(Nc1cc(Cl)cc(Cl)c1)N1CCCCC1` [JC4], the MIC in the data set on S. aureus UAMS-1 [1] (setting [6]) and with S. aureus UAMS-1 [1] (setting [5]) was 256 µg/mL (≈ 937 µM) throughout. For the same molecule, the figures for the IC50 (in data set [3] (setting [7]); at S. aureus RnpA (read-out: Degradation IC50)) were 300 µM and over 500 µM, respectively. Further, in the data set with HepG2 cells, the “MTT = % HepG2 cell survival” value is recorded as 71.4%.
